Laboratory results as given in article PMC7998669, “7-(2-Anilinopyrimidin-4-yl)-1-benzazepin-2-ones Designed by a “Cut and Glue” Strategy Are Dual Aurora A/VEGF-R Kinase Inhibitors” (Molecules, 2021).

Legend:
Test in all cases: NCI cancer cell line screen (sulforhodamin B)
Assay type in all cases: cell-based
HT29 = conditions: Homo sapiens, HT-29; HT29, Colon; 48 h; read-out: log10 GI50 (converted)
Description: (§1) The new dual Aurora A/VEGF-R inhibitors 2e and 2n were selected by the National Cancer Institute for screening in its broad cancer cell line panel. The NCI in vitro assay is performed by incubation of cells with test compounds for 48 h and subsequent cell fixation with trichloroacetic acid. The pink dye sulforhodamin B is added, which binds to the proteins of the fixed cells. After washing and solubilizing the bound stain, the optical density is measured spectrophotometrically to determine the relative proliferation of treated and untreated cells.
(§2) Simultaneous inhibition of the Aurora A kinase and the VEGF-R2/3 receptor kinases may represent an interesting dual activity for the treatment of cancer. The National Cancer Institute selected the compounds 2e and 2n as representatives with particularly high inhibitory activity on the above kinases for testing in the IVCLS (in vitro cell line screening). In this screening, compounds are tested for antiproliferative activity on about 60 in vitro cultivated tumor cell lines. Based on this very broad screening on cell lines from nine tumor entities the general antiproliferative potency of compounds is determined. In addition, the bioinformatic tool COMPARE allowed one to draw conclusions on the molecular target of the compounds from the activity patterns on the different cell lines. Similar molecular mechanisms of action of two compounds are assumed if a Pearson correlation coefficient (PCC) of > 0.6 is calculated by COMPARE [52, 53]. […] The selectivity profile of the two compounds is not very pronounced given the overall very similar proliferation inhibition values across all cell lines. A COMPARE analysis determined a PCC = 0.61 for the patterns of test compounds 2e and 2n, which is consistent with an analogous mechanism of action. However, whether this mechanism is actually based on the inhibition of the inhibited Aurora kinases and VEGF receptor kinases cannot be deduced from these profiles.

SK-OV-3 = conditions: Homo sapiens; SK-OV-3, Ovarian; 48 h; read-out: log10 GI50 (converted)
Description: as §1, §2

IGROV1 = conditions: Homo sapiens, IGROV-1; IGROV1, Ovarian; 48 h; read-out: log10 GI50 (converted)
Description: as §1, §2

KM12 = conditions: Homo sapiens; KM12, Colon; 48 h; read-out: log10 GI50 (converted)
Description: as §1, §2

U251 = conditions: Homo sapiens, U-251; U251, CNS; 48 h; read-out: log10 GI50 (converted)
Description: as §1, §2

K-562 = conditions: Homo sapiens, K562; K-562, Leukemia; 48 h; read-out: log10 GI50 (converted)
Description: as §1, §2

NCI/ADR-RES = conditions: Homo sapiens, Ovarian, 48 h, read-out: log10 GI50 (converted)
Description: as §1, §2

HCC-2998 = conditions: Homo sapiens; HCC-2998, Colon; 48 h; read-out: log10 GI50 (converted)
Description: as §1, §2

Structure (SMILES)	GI50 (HT29)	GI50 (SK-OV-3)	GI50 (IGROV1)	GI50 (KM12)	GI50 (U251)	GI50 (K-562)	GI50 (NCI/ADR-RES)	GI50 (HCC-2998)
O=C1CCCc2cc(-c3ccnc(Nc4ccc(O)cc4)n3)ccc2N1 [Compound 2e, 7-[2-(4-Hydroxyanilino)pyrimidin-4-yl]-1,3,4,5-tetrahydro-2H-1-benzazepin-2-one]	5.13 µM	3.02 µM	2.51 µM	2.57 µM	6.03 µM	3.72 µM	> 100 µM	8.71 µM
COc1ccc(Nc2nccc(-c3ccc4c(c3)CCCC(=O)N4)n2)cc1O [Compound 2n, 7-[2-(3-Hydroxy-4-methoxyanilino)pyrimidin-4-yl]-1,3,4,5-tetrahydro-2H-1-benzazepin-2-one]	13.2 µM	5.25 µM	3.02 µM	4.79 µM	10.2 µM	4.27 µM	14.1 µM	22.9 µM
